Experimental data as given in PMC12040169 (PLOS Biology, 2025).
“And” between values parts separate entries of the source, which are not always exact repeats. Equal entries are not always repeated.

Legend:
HeLa = conditions: bulk resorufin, single well, 28.5 h, 10 µM, Bulk resorufin fluorescence
in vitro = conditions: human, hela cells, % viability

SMILES | % viability (HeLa) | viability at 28.5 h, 10 µM (in vitro) [%]
Cc1c(S(=O)(=O)NCCN2CCNC2=O)cnn1-c1ccccc1 [CBK062603] | 99.3% | 117
CCCNC(=O)[C@@H]1Cc2c([nH]c3ccccc23)[C@]2(CCN(CCOc3ccccc3)C2)N1 [CBK063172T] | 86% | 101
Cc1nn(C)c(Cl)c1S(=O)(=O)Nc1nc(=O)[nH]cc1F [CBK067568] | 97.9% and 87.2% | 99.1
Cc1csc(NC(=O)c2ccc(S(=O)(=O)N3CCCCC3)cc2)n1 [CBK069735] | 103% | 102
COc1cccc(NC(=O)c2sc3ncn(C)c(=O)c3c2C)c1 [CBK071807] | 82.5% | 99.2
COc1ccc(C(=O)Nc2nnc(CC(=O)N/N=C/c3ccccc3OC)s2)cc1 [CBK072076] | 101% | 91.8
COc1nccnc1OC1CCNCC1 [CBK073919T] | 86.5% and 97.3% | 100
CCCc1[nH]nc(O)c1CCc1ccc(Cl)cc1Cl [CBK075082] | 109% | 106
CC(=O)n1cc(C2C(=O)NN=C2C)c2ccccc21 (stereo not shown) [CBK083563] | 82.3% | 102
Nc1c(-c2cccc3cccnc23)cnc2ncccc12 [CBK083682] | 88.7% | 108
Clc1ccc(COc2ccnc(N3CCCN(CCN4CCOCC4)CC3)n2)cc1Cl [CBK083957] | 98.9% | 97.8
Clc1ccc(COc2cncc(OC3CCN(CCN4CCOCC4)C3)n2)cc1Cl (stereo not shown) [CBK084433] | 100% | 87
CS(=O)(=O)Nc1cc2cccnc2nc1-c1ccc2c(c1)CCO2 [CBK085690] | 102% | 104
COc1cc(F)ccc1-c1nc(NS(C)(=O)=O)cc2ccccc12 [CBK085751] | 105% | 97.2
CC(=O)Nc1ccc(NS(=O)(=O)c2ccc(O)c(C(=O)O)c2)cc1 [CBK092150] | 96.9% | 115
COc1cc(-c2ccc(OC3CCNCC3)cc2)cc(OC)c1OC [CBK093682] | 102% | 99
CC(C)(C)c1cc(C(=O)NCCN2CCCC2)n(Cc2ccc(Cl)cc2Cl)n1 [CBK107290] | 110% | 115
O=C(CSC1=NCCS1)Nc1ccnc2ccccc12 [CBK112077] | 98.9% | 101
CN(C)S(=O)(=O)c1cc(C(=O)O)c(Cl)cc1Cl [CBK113173] | 94% | 101
CCOC(=O)c1sc2nccc(Nc3ccccc3)c2c1N [CBK115365] | 91.8% | 90.8
OC1CCn2c1nc1cc(C(F)(F)F)ccc12 (stereo not shown) [CBK115448] | 70.8% | 80.4
COc1ccc(C2N(CC(N)=O)CCOC23CCN(C(=O)c2ccc4ccccc4c2)CC3)cc1 (stereo not shown) [CBK115613] | 101% | 96.9
FC(F)(F)c1ccnc(OCCCc2ccncc2)c1 [CBK115786] | 101% | 109
CCCCOC(=O)c1ccc(NC(=O)Nc2ccc3ccc(Cl)nc3n2)cc1 [CBK115932] | 97.1% | 93.8
COc1ccc2[nH]cc(CCNC(=O)Cc3c[nH]c4ccc(O)cc34)c2c1 [CBK116216] | 84.5% | 98.6
Oc1ccc(-c2cncc(-c3ccc(CN4CCOCC4)cc3)n2)cc1 [CBK123787] | 108% | 104
CC(C)c1ccc(CN2CCC(Cc3ccccc3)CC2)cc1 [CBK126378] | 109% | 99.1
O=C(O)CCS(=O)(=O)c1cccc2cccnc12 [CBK131911] | 92.5% | 102
CCN(Cc1ccccc1)C(=O)NCC1COc2ccccc2O1 (stereo not shown) [CBK155213] | 89.3% | 103
